Consider 1 molecule from US20230285339A1, “THERAPIES FOR TREATING AML AND USES OF RARA AGONISTS, HYPOMETHYLATING AGENTS, AND BCL-2 INHIBITORS” (Syros Pharmaceuticals, Inc., priority 2020, published 2023).

Structures are written as SMILES.

The assay deals with AML samples. The assay can be described thus: Beat AML ex vivo venetoclax sensitivity, proliferation assay on AML patient samples (AUC and IC50). The format is cell-based, human. As to the method: Venetoclax sensitivity in BeatAML: The BeatAML dataset a/so included ex vivo sensitivity analysis for a panel of 121 inhibitors, including venetoclax, in a proliferation assay on 248 of the AML samples measured by area under the curve (AUC) and IC50. Only some of the patient samples were queried for each inhibitor. Of the samples with at least 40% blasts, 90 were tested for venetoclax ex vivo sensitivity. To define the best possible association of gene expression with venetoclax AUC, we performed a logistic regression model with lasso regularization to predict venetoclax AUC from the expression of all expressed genes using the expression matrix quantile normalized with the TCGA dataset. The R package glmnet was used as described above in the section “Development of monocytic expression signature in TCGA.”
To define samples sensitive to venetoclax, we first identified an IC50 that could separate sensitive samples from insensitive samples, as follows. We consulted two references (Bogenberger et al., Oncotarget 8:107206-107222, 2017) and Ramsey et al. Cancer Discovery 8:1566-1581, 2018) that defined sensitive AML cells in the range of 20-60 nM and resistant AML cells around 1 μM, and we choose 100 nM as a threshold that splits this range. We then mapped 100 nM IC50 values from the BeatAML venetoclax ex vivo assay to AUC, which is a more robust quantitative measure of sensitivity, by selecting the AUC below which all samples have an IC50<100 nM, which led to the AUC threshold of 130. At this threshold, we found 35 AML samples sensitive to venetoclax and 55 AML samples resistant to venetoclax.
In the methods, RARA gene expression in non-APL AML was evaluated in the TCGA and Beat AML RNA-seq datasets. AUC of cell viability curves were used to evaluate ex vivo sensitivity to compounds, including venetoclax, in the Beat AML dataset. A monocytic MES was developed using the expression of monocytic and primitive RNA markers in the TCGA dataset to analyze the monocytic phenotype. The MES used a logistic regression model with lasso regularization to distinguish FAB M4/5 (monocytic) from FAB M0/1/2 (primitive) using 10-fold cross-validation with 85% sensitivity and 80% specificity. The MES was then applied to the RNA-seq datasets from Beat AML and AML blasts from ND unfit AML patients in the ongoing tamibarotene-plus-azacitidine trial (NCT02807558), in which RARA-positive patients were determined by an RT-qPCR-based biomarker clinical trial assay (CTA). The MES, RARA expression, and venetoclax resistance-associated features were compared using Spearman's rho correlation; the association of the MES with the RARA biomarker and with IWG clinical responses in tamibarotene plus Aza treated patients was evaluated.

For `CC1(C)CCC(CN2CCN(c3ccc(C(=O)NS(=O)(=O)c4ccc(NCC5CCOCC5)c([N+](=O)[O-])c4)c(Oc4cnc5[nH]ccc5c4)c3)CC2)=C(c2ccc(Cl)cc2)C1` [venetoclax], the AML samples resistant (All 90 samples, AUC threshold 130) was determined as 55. Also, the Percent sensitive runs as follows: (All patients (90 AML samples), AUC threshold 130) 39%; (Monocytic AML patients (MES>0.5), N total 44) 11%; (Primitive AML patients, N total 46) 65%; (RARA-high patients, N total 21) 0%; (RARA-low patients, N total 69) 51%. The N sensitive amounted to 35 (All patients (90 AML samples, at least 40% blasts), sensitive = AUC below threshold of 130 (IC50<100 nM)); 30 (Primitive AML patients (MES<0.5), N total 46); 35 (RARA-low patients, N total 69).
